Data: patent US20020137929A1, “1 - (3-heterocyclylphenyl) isothiourea, -isourea, -guanidine and -amidine herbicidal agents” (Intellectual Property Department, BASF Aktiengesellschaft, priority 1998, published 2002)

Columns and labels:
AMBEL (Ragweed, Common) = experiment: Postemergence herbicidal evaluation; assay type: in vivo, Ambrosia artemisifolia; conditions: postemergence
How it was run: (§1)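 Rate range approx. 0.0156–0.500 kg/ha. Foliar application at 40 psi to ~2-week seedlings; surfactant 0.5% TWEEN 20 in 50/50 acetone/water. Evaluation 4–5 wk post-treatment by 0–9 visual injury score, means of replicate tests.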

CASOB (Sicklepod) = experiment: Postemergence herbicidal evaluation; assay type: in vivo, Cassia obtusifolia; conditions: postemergence
How it was run: as §1

GALAP (Galium) [1] = experiment: Postemergence herbicidal evaluation; assay type: in vivo, Galium aparine; conditions: postemergence
How it was run: as §1

[2] = test system: GLXMAW (Soybean, Williams); experiment: Postemergence herbicidal evaluation; assay type: in vivo, Glycine max, (L.) Merr. cv Williams; conditions: postemergence
How it was run: as §1

[3] = test system: TRZAWR (Wheat, Winter, cv Riband); experiment: Postemergence herbicidal evaluation; assay type: in vivo, Triticum aestivum; conditions: postemergence
How it was run: as §1

GALAP (Galium) [4] = experiment: Preemergence herbicidal evaluation; assay type: in vivo, Galium aparine; conditions: rated 4-5 weeks after treatment
How it was run: (§2)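 In this greenhouse assay, monocot and dicot seeds are planted in soil and treated prior to emergence with an aqueous acetone spray (about 0.0156-0.500 kg/ha). Plants are assessed visually against control on a 0-9 scale after 4-5 weeks.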

SETVI (Foxtail, Green) = experiment: Preemergence herbicidal evaluation; assay type: in vivo, Setaria viridis; conditions: rated 4-5 weeks after treatment
How it was run: as §2

ORYSAT (Rice, Tebonnet) = experiment: Preemergence herbicidal evaluation; assay type: in vivo, Oryza sativa, (L.) Tebonnet; conditions: rated 4-5 weeks after treatment
How it was run: as §2

[5] = test system: ECHORC (Watergrass (Calif.)); experiment: Preemergence weed control under flooded paddy conditions; assay type: in vivo, Echinochloa oryzoides; conditions: rated 3-4 weeks after treatment
How it was run: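 Seeds or propagules sown in top 0.5 cm of silt loam soil, flooded 1.5 to 3 cm above surface throughout. Compound in 50/50 v/v aqueous/acetone pipetted into flood water at about 0.0313 to 0.500 kg/ha. Visual 0-9 rating versus control after three to four weeks in greenhouse.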

CYPSE (Flatsedge) = experiment: as above; assay type: in vivo, Cyperus serotinus; conditions: rated 3-4 weeks after treatment
How it was run: (§3)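 Silt loam, seeds in top 0.5 cm; flood held 1.5-3 cm; test cpd as acetone/water 50/50 into flood water, ~0.0313-0.500 kg/ha a.i.; greenhouse 3-4 wk; visual 0-9 score vs control.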

MOOVA (Monochoria) = experiment: as above; assay type: in vivo, Monochoria vaginalis; conditions: rated 3-4 weeks after treatment
How it was run: as §3

[6] = test system: SAGPY (Arrowhead (Pygmaea)); experiment: as above; assay type: in vivo, Sagittaria pygmaea; conditions: rated 3-4 weeks after treatment
How it was run: as §3

[7] = test system: ECHORC (Watergrass (Calif.)); experiment: Postemergence weed control under flooded paddy conditions; assay type: in vivo, Echinochloa oryzoides; conditions: postemergence weeds, 3-4 weeks after treatment
How it was run: (§4)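 Weeds 3 to 5 cm tall and rice seedlings at the 1.5 to 2.5 leaf stage were flooded, with water held 1.5 to 3 cm above the soil. Compounds in 50/50 v/v aqueous/acetone went into the flood water at about 0.0313 to 0.500 kg/ha. Visual 0-9 ratings versus control were made 3 to 4 weeks later.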

[8] = test system: SAGPY (Arrowhead (Pygmaea)); experiment: as above; assay type: in vivo, Sagittaria pygmaea; conditions: postemergence weeds, 3-4 weeks after treatment
How it was run: as §4

CC1SC(=Nc2cc(-n3c(=O)cc(C(F)(F)F)n(C)c3=O)c(F)cc2Cl)N(C)C1=O (stereo not shown) [Compound 9]
3.3: TRZAWR herbicidal rating ([3]; rate 0.0156 kg/ha)
4.3: TRZAWR herbicidal rating ([3]; rate 0.0625 kg/ha)
1.0: CASOB herbicidal rating (CASOB (Sicklepod); rate 0.0313 kg/ha) | GALAP preemergence herbicidal rating (GALAP (Galium) [4]; rate 0.0156 kg/ha) | Herbicidal rating SAGPY ([6]; 0.1250 kg/ha) | Herbicidal rating SAGPY ([8]; rate 0.1250 kg/ha)
5.0: TRZAWR herbicidal rating ([3]; rate 0.1250 kg/ha)
4.0: Herbicidal rating ECHORC ([5]; 0.1250 kg/ha) | Herbicidal rating ECHORC ([7]; rate 0.1250 kg/ha)
4.5: CASOB herbicidal rating (CASOB (Sicklepod); rate 0.1250 kg/ha) | GALAP herbicidal rating (GALAP (Galium) [1]; rate 0.0625 kg/ha) | GLXMAW herbicidal rating ([2]; rate 0.0156 kg/ha) | GALAP preemergence herbicidal rating (GALAP (Galium) [4]; rate 0.0313 kg/ha)
9.0: GALAP preemergence herbicidal rating (GALAP (Galium) [4]; rate 0.0625 kg/ha) | GALAP preemergence herbicidal rating (GALAP (Galium) [4]; rate 0.1250 kg/ha) | GALAP preemergence herbicidal rating (GALAP (Galium) [4]; rate 0.2500 kg/ha) | SETVI preemergence herbicidal rating (SETVI (Foxtail, Green); rate 0.0313 kg/ha) | SETVI preemergence herbicidal rating (SETVI (Foxtail, Green); rate 0.0625 kg/ha) | SETVI preemergence herbicidal rating (SETVI (Foxtail, Green); rate 0.1250 kg/ha) | SETVI preemergence herbicidal rating (SETVI (Foxtail, Green); rate 0.2500 kg/ha) | ORYSAT preemergence herbicidal rating (ORYSAT (Rice, Tebonnet); rate 0.1250 kg/ha) | ORYSAT preemergence herbicidal rating (ORYSAT (Rice, Tebonnet); rate 0.2500 kg/ha) | Herbicidal rating MOOVA (MOOVA (Monochoria); 0.0313 kg/ha) | Herbicidal rating MOOVA (MOOVA (Monochoria); 0.0625 kg/ha) | Herbicidal rating MOOVA (MOOVA (Monochoria); 0.1250 kg/ha) | Herbicidal rating MOOVA (MOOVA (Monochoria); 0.2500 kg/ha)
7.3: GLXMAW herbicidal rating ([2]; rate 0.1250 kg/ha)
2.0: AMBEL herbicidal rating (AMBEL (Ragweed, Common); rate 0.0156 kg/ha) | CASOB herbicidal rating (CASOB (Sicklepod); rate 0.0625 kg/ha) | Herbicidal rating ECHORC ([5]; 0.0625 kg/ha) | Herbicidal rating CYPSE (CYPSE (Flatsedge); 0.1250 kg/ha) | Herbicidal rating SAGPY ([6]; 0.2500 kg/ha) | Herbicidal rating ECHORC ([7]; rate 0.0625 kg/ha) | Herbicidal rating SAGPY ([8]; rate 0.2500 kg/ha)
6.8: GLXMAW herbicidal rating ([2]; rate 0.0625 kg/ha)
1.5: GALAP herbicidal rating (GALAP (Galium) [1]; rate 0.0156 kg/ha)
7.0: AMBEL herbicidal rating (AMBEL (Ragweed, Common); rate 0.1250 kg/ha) | Herbicidal rating ECHORC ([5]; 0.2500 kg/ha) | Herbicidal rating CYPSE (CYPSE (Flatsedge); 0.2500 kg/ha) | Herbicidal rating ECHORC ([7]; rate 0.2500 kg/ha)
5.5: ORYSAT preemergence herbicidal rating (ORYSAT (Rice, Tebonnet); rate 0.0156 kg/ha)
3.5: AMBEL herbicidal rating (AMBEL (Ragweed, Common); rate 0.0313 kg/ha) | TRZAWR herbicidal rating ([3]; rate 0.0313 kg/ha)
0.0: CASOB herbicidal rating (CASOB (Sicklepod); rate 0.0156 kg/ha) | Herbicidal rating ECHORC ([5]; 0.0313 kg/ha) | Herbicidal rating CYPSE (CYPSE (Flatsedge); 0.0313 kg/ha) | Herbicidal rating CYPSE (CYPSE (Flatsedge); 0.0625 kg/ha) | Herbicidal rating SAGPY ([6]; 0.0313 kg/ha) | Herbicidal rating SAGPY ([6]; 0.0625 kg/ha) | Herbicidal rating ECHORC ([7]; rate 0.0313 kg/ha) | Herbicidal rating SAGPY ([8]; rate 0.0313 kg/ha) | Herbicidal rating SAGPY ([8]; rate 0.0625 kg/ha)
8.5: ORYSAT preemergence herbicidal rating (ORYSAT (Rice, Tebonnet); rate 0.0313 kg/ha)
2.5: GALAP herbicidal rating (GALAP (Galium) [1]; rate 0.0313 kg/ha)
5.8: GLXMAW herbicidal rating ([2]; rate 0.0313 kg/ha)
7.5: AMBEL herbicidal rating (AMBEL (Ragweed, Common); rate 0.0625 kg/ha) | GALAP herbicidal rating (GALAP (Galium) [1]; rate 0.1250 kg/ha) | ORYSAT preemergence herbicidal rating (ORYSAT (Rice, Tebonnet); rate 0.0625 kg/ha)
8.3: SETVI preemergence herbicidal rating (SETVI (Foxtail, Green); rate 0.0156 kg/ha)

CCC1SC(=Nc2cc(-n3c(=O)cc(C(F)(F)F)n(C)c3=O)c(F)cc2Cl)N(C)C1=O (stereo not shown) [Compound 10]
3.0: CASOB herbicidal rating (CASOB (Sicklepod); rate 0.1250 kg/ha) | ORYSAT preemergence herbicidal rating (ORYSAT (Rice, Tebonnet); rate 0.0313 kg/ha)
0.5: AMBEL herbicidal rating (AMBEL (Ragweed, Common); rate 0.0156 kg/ha) | CASOB herbicidal rating (CASOB (Sicklepod); rate 0.0625 kg/ha) | GALAP preemergence herbicidal rating (GALAP (Galium) [4]; rate 0.0156 kg/ha)
5.7: SETVI preemergence herbicidal rating (SETVI (Foxtail, Green); rate 0.0313 kg/ha)
0.0: CASOB herbicidal rating (CASOB (Sicklepod); rate 0.0156 kg/ha) | CASOB herbicidal rating (CASOB (Sicklepod); rate 0.0313 kg/ha) | Herbicidal rating ECHORC ([5]; 0.0313 kg/ha) | Herbicidal rating CYPSE (CYPSE (Flatsedge); 0.0313 kg/ha) | Herbicidal rating CYPSE (CYPSE (Flatsedge); 0.0625 kg/ha) | Herbicidal rating CYPSE (CYPSE (Flatsedge); 0.1250 kg/ha) | Herbicidal rating CYPSE (CYPSE (Flatsedge); 0.2500 kg/ha) | Herbicidal rating SAGPY ([6]; 0.0313 kg/ha) | Herbicidal rating SAGPY ([6]; 0.0625 kg/ha) | Herbicidal rating SAGPY ([6]; 0.1250 kg/ha) | Herbicidal rating SAGPY ([6]; 0.2500 kg/ha) | Herbicidal rating ECHORC ([7]; rate 0.0313 kg/ha) | Herbicidal rating SAGPY ([8]; rate 0.0313 kg/ha) | Herbicidal rating SAGPY ([8]; rate 0.0625 kg/ha) | Herbicidal rating SAGPY ([8]; rate 0.1250 kg/ha) | Herbicidal rating SAGPY ([8]; rate 0.2500 kg/ha)
5.8: GLXMAW herbicidal rating ([2]; rate 0.1250 kg/ha)
2.5: TRZAWR herbicidal rating ([3]; rate 0.0156 kg/ha)
3.5: GALAP herbicidal rating (GALAP (Galium) [1]; rate 0.0625 kg/ha) | TRZAWR herbicidal rating ([3]; rate 0.1250 kg/ha)
6.5: ORYSAT preemergence herbicidal rating (ORYSAT (Rice, Tebonnet); rate 0.1250 kg/ha)
5.3: GLXMAW herbicidal rating ([2]; rate 0.0625 kg/ha)
4.5: AMBEL herbicidal rating (AMBEL (Ragweed, Common); rate 0.1250 kg/ha) | GALAP herbicidal rating (GALAP (Galium) [1]; rate 0.1250 kg/ha) | GLXMAW herbicidal rating ([2]; rate 0.0313 kg/ha) | GALAP preemergence herbicidal rating (GALAP (Galium) [4]; rate 0.0625 kg/ha) | ORYSAT preemergence herbicidal rating (ORYSAT (Rice, Tebonnet); rate 0.0625 kg/ha)
2.0: AMBEL herbicidal rating (AMBEL (Ragweed, Common); rate 0.0625 kg/ha) | GALAP herbicidal rating (GALAP (Galium) [1]; rate 0.0313 kg/ha) | GALAP preemergence herbicidal rating (GALAP (Galium) [4]; rate 0.0313 kg/ha) | Herbicidal rating ECHORC ([5]; 0.1250 kg/ha) | Herbicidal rating ECHORC ([5]; 0.2500 kg/ha) | Herbicidal rating ECHORC ([7]; rate 0.1250 kg/ha) | Herbicidal rating ECHORC ([7]; rate 0.2500 kg/ha)
4.0: GLXMAW herbicidal rating ([2]; rate 0.0156 kg/ha)
3.3: TRZAWR herbicidal rating ([3]; rate 0.0313 kg/ha) | TRZAWR herbicidal rating ([3]; rate 0.0625 kg/ha)
1.0: AMBEL herbicidal rating (AMBEL (Ragweed, Common); rate 0.0313 kg/ha) | GALAP herbicidal rating (GALAP (Galium) [1]; rate 0.0156 kg/ha) | ORYSAT preemergence herbicidal rating (ORYSAT (Rice, Tebonnet); rate 0.0156 kg/ha) | Herbicidal rating ECHORC ([5]; 0.0625 kg/ha) | Herbicidal rating ECHORC ([7]; rate 0.0625 kg/ha)
2.3: SETVI preemergence herbicidal rating (SETVI (Foxtail, Green); rate 0.0156 kg/ha)
7.5: ORYSAT preemergence herbicidal rating (ORYSAT (Rice, Tebonnet); rate 0.2500 kg/ha)
9.0: GALAP preemergence herbicidal rating (GALAP (Galium) [4]; rate 0.1250 kg/ha) | GALAP preemergence herbicidal rating (GALAP (Galium) [4]; rate 0.2500 kg/ha) | SETVI preemergence herbicidal rating (SETVI (Foxtail, Green); rate 0.0625 kg/ha) | SETVI preemergence herbicidal rating (SETVI (Foxtail, Green); rate 0.1250 kg/ha) | SETVI preemergence herbicidal rating (SETVI (Foxtail, Green); rate 0.2500 kg/ha) | Herbicidal rating MOOVA (MOOVA (Monochoria); 0.0313 kg/ha) | Herbicidal rating MOOVA (MOOVA (Monochoria); 0.0625 kg/ha) | Herbicidal rating MOOVA (MOOVA (Monochoria); 0.1250 kg/ha) | Herbicidal rating MOOVA (MOOVA (Monochoria); 0.2500 kg/ha)
